# Experimental data taken from PubChem BioAssay AID602445 (National Center for Advancing Translational Sciences (NCATS), 2012).
# Test system: mouse liver microsomes with NADPH, percent remaining
# Experiment: High Content Assay for Compounds that inhibit the Assembly of the Perinucleolar Compartment: Mouse Liver Microsome Stability with NADPH
# Details: active compounds read low
# Description: The perinucleolar compartment (PNC) is a non-membrane-bound nuclear subdomain that is associated with but structurally distinct from the nucleolus. The PNC is a heritable trait, in which the number of PNCs per cell in daughter cells often mimics that of their mother cells. The PNC is heterogeneous in shape, is stable through interphase, disassembles during mitosis, and reassembles in early G1. The PNC is concentrated with newly synthesized RNA polymerase III (pol III) RNAs (MRP RNA, RNAse P H1 RNA, hY RNAs[hY1, 2, 5], Alu RNA, and SRP [7SL] RNA) and RNA binding proteins (nucleolin, PTB, CUG-BP, KSRP, Raver1, Raver2, and Rod).
# Extensive in vitro studies have shown that the PNC is unique to tumor cells and preferentially forms in tumor cells derived from solid tissues. Examination of cancer cell lines from various origins and malignant capacities has shown that PNC prevalence correlates with the malignancy of tumors and has the potential to be developed as a pan-cancer prognostic marker.
# Mouse liver microsomes are generated from lysed mouse liver. […]
# 1uM of compound in incubated in mouse liver microsome; the reference compound is ketanserin. […] Samples are analyzed with LC-MS/MS.
smiles,measurement,value
N=c1c2c(-c3ccccc3)c(-c3ccccc3)n(Cc3ccccc3)c2ncn1C1CCC(O)CC1 (stereo unspecified),percent remaining,107%
